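Grown in 96-well plates, cells were treated for 48 hours with each compound at five concentrations. Insufficient inhibition: endpoint recorded as highest concentration tested. GI50 marks 50% less growth.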 Active and inactive are the calls of the source. Cut-off read from the data, not from the text of the source: active = GI50 up to about 1.1 µM and inactive = higher.
Assays:
Assay in all cases: DTP human tumour cell line panel, 48 h
[1] = tested on: 786-0
[2] = tested on: HCC 2998
[3] = tested on: HT-29
[4] = tested on: KM12
[5] = tested on: MOLT-4
[6] = tested on: Malme-3M
[7] = tested on: NCI-H23
[8] = tested on: NCI-H522
[9] = tested on: OVCAR-3
[10] = tested on: OVCAR-4
[11] = tested on: RXF 393
[12] = tested on: SF-268
[13] = tested on: SF-539
[14] = tested on: SNB-19
[15] = tested on: SNB-75
[16] = tested on: TK-10
[17] = tested on: UACC-62

Measured: GI50

CCCCCCCCCC(=O)OCC1OC(n2cc(F)c(=O)[nH]c2=O)C(NC(=O)OCc2ccccc2)C(OC(=O)CCCCCCCCC)C1O (configuration not stated)
inactive: [1] 18.9 µM | [2] 41.2 µM | [3] 16.9 µM | [4] 31 µM | [5] 18.7 µM | [6] 24.2 µM | [7] 25.5 µM | [8] 20.9 µM | [9] 21.2 µM | [10] 16.6 µM | [11] 18.8 µM | [12] 51.4 µM | [13] 40.8 µM | [14] 33.6 µM | [15] 16.3 µM | [16] 80.9 µM | [17] 44.2 µM

CCCCc1c2c([n+]([O-])c3c1CCCC3)CCCC2
inactive: [1] > 100 µM | [2] > 100 µM | [3] > 100 µM | [4] > 100 µM | [5] 6.59 µM | [6] > 100 µM | [7] > 100 µM | [8] 2 µM | [9] 31 µM | [12] 66.4 µM | [13] > 100 µM | [14] 44.4 µM | [16] > 100 µM

N#Cc1c2ccccc2c(Cc2ccc3c(c2)OCCOCCOCCOCCOCCO3)c2ccccc12
inactive: [1] 10.9 µM | [2] 11.8 µM | [4] 5.5 µM | [5] 2.82 µM | [6] 6.44 µM | [7] 11.4 µM | [8] 10.8 µM | [9] 4.23 µM | [10] 3 µM | [11] 2.32 µM | [12] 5.28 µM | [13] 14.1 µM | [14] 9.66 µM | [16] 5.01 µM | [17] 6.41 µM

CC(=O)OC1OC2C(NC(=O)OC(C)(C)C)C1CC2(OCc1ccccc1)OCc1ccccc1 (configuration not stated)
inactive: [1] 23.3 µM | [2] 21.6 µM | [3] 33.7 µM | [4] 27.8 µM | [5] 9.71 µM | [6] 14.4 µM | [7] 18.8 µM | [8] 15.1 µM | [9] 16.5 µM | [11] 14.2 µM | [12] 35.7 µM | [13] 18.1 µM | [14] 45.1 µM | [15] 36.2 µM | [16] 17 µM | [17] 19 µM

CCOC(=O)C(=O)Nc1c(C)cccc1C
inactive: [1] > 100 µM | [2] > 100 µM | [3] > 100 µM | [4] > 100 µM | [6] > 100 µM | [7] > 100 µM | [9] > 100 µM | [10] > 100 µM | [11] > 100 µM | [12] > 100 µM | [13] > 100 µM | [14] > 100 µM | [15] > 100 µM | [16] > 100 µM | [17] > 100 µM

Cc1n[nH]c(=S)n(C)c1=S
inactive: [1] > 100 µM | [5] > 100 µM | [6] > 100 µM | [7] > 100 µM | [8] > 100 µM | [9] > 100 µM | [10] > 100 µM | [11] > 100 µM | [12] > 100 µM | [13] > 100 µM | [14] > 100 µM | [15] > 100 µM | [16] > 100 µM | [17] > 100 µM

N#C/C(c1nc2ccccc2[nH]1)=c1\s/c(=C/c2ccc(Cl)cc2)c(=O)n1-c1ccccc1
inactive: [1] > 100 µM | [2] > 100 µM | [4] > 100 µM | [5] > 100 µM | [6] > 100 µM | [7] > 100 µM | [8] > 100 µM | [9] > 100 µM | [10] > 100 µM | [12] > 100 µM | [13] > 100 µM | [14] > 100 µM | [15] 37.3 µM | [16] > 100 µM | [17] > 100 µM

Cc1cc([N+](=O)[O-])ccc1Sc1c2ccccc2nc2cc(Cl)ccc12
inactive: [1] 35.2 µM | [2] > 100 µM | [4] 18.6 µM | [5] 21.3 µM | [6] > 100 µM | [7] 28.8 µM | [8] 27.7 µM | [9] 28.3 µM | [10] 41.4 µM | [11] 84.5 µM | [12] 29.6 µM | [13] 25.9 µM | [14] 41.3 µM | [15] 30.8 µM | [16] 55.6 µM | [17] 34.5 µM

FC(F)(F)c1ccc(C2SCc3nc4ccccc4n32)cc1 (configuration not stated)
inactive: [1] > 100 µM | [2] > 100 µM | [3] > 100 µM | [4] 50 µM | [5] 12.1 µM | [6] > 100 µM | [7] 5.89 µM | [8] > 10 µM | [9] > 10 µM | [11] 97.5 µM | [12] 95.3 µM | [13] > 100 µM | [14] > 100 µM | [15] 60 µM | [16] > 100 µM | [17] 26.4 µM

From ChEMBL document CHEMBL1201862, “PubChem BioAssay data set” (2004)
